Measured values published in patent publication US4513008A, “Virucidal compositions and therapy” (The Vinoxen Company, Inc., priority 1982, dated 1985).
≈ marks a conversion by molar mass, not a printed value.

Tested on: herpes simplex virus type 2 (HSV-2)
Assay: In vitro HSV-2 bioassay: virucidal plaque assay (HEP-2 cells)
Type: cell-based, HSV-2 strain 333
Settings: for MIC: Human alphaherpesvirus 2, 0.5 h, Table 4 run, 30 min at 25° C., upper limit, dilutions to 1:12800, read-out: MIC (lowest concentration producing a 3-log reduction in virus titer); for virucidal activity against HSV-2 in words: in vitro bioassay
Description: Evidence of the efficacy of the virucides of the invention in vitro has been obtained from bioassay using HSV-2, using a standard assay procedure. Serial dilutions of the compounds were tested for their ability to prevent plaque formation by a stock virus suspension. Reduction of plaque titer by test compounds as compared to mock treated controls was indicative of virucidal activity. […] These represent the upper limit for the drug concentration, since dilutions were not carried beyond 1:6400 and in some cases 1:12800.
Cell Culture. Cell cultures used for the propagation and titration of HSV-2 were the human diploid lung embryonic line MRC-5 and the human malignant epitheloid cell line HEP-2 respectively. Stock monolayer cultures of both cell lines were propagated in Dulbecco's Modified Eagle's medium (DME) supplemented with 10% (V/V) calf serum. Spinner cultures for mass production of HEP-2 cells were grown in Joklik's medium supplemented with 10% (V/V) calf serum and 1% (W/V) pluronic acid. Monolayer cultures of HEP-2 cells for plaque or virucidal assay were seeded into 60 mm dishes in DME supplemented with 10% calf serum and antibiotics. Stock cultures were maintained in antibiotic free medium.
Herpes simplex virus, type 2 (HSV-2) strain 333 was obtained from Dr. John Hughes of the Dept. of Medical Microbiology, College of Medicine, The Ohio State University. Stocks of HSV-2 were prepared in the human diploid embryonic lung cell line, MRC-5. Confluent MRC-5 monolayer cultures in T-75 plastic flasks were washed one time with Hank's and Balanced Salt solution (HBSS) and infected with 0.5 ml of HSV-2, strain 333 stock. Virus was adsorbed for 1 hour at 37° C. Then the culture was refed with 15 ml of DME supplemented with 1% (V/V) calf serum. Virus was harvested 48 hours later when cytopathology was complete. Cultures were frozen and thawed rapidly three times to release cell associated virus, clarified by centrifugation at 10,000×g for 15 minutes at 4° C., aliquoted into 5 ml lots and frozen at -70° C. One lot was taken for virus titration.
HSV-2 was titrated by plaque assay in HEP-2 cells under a semi-solid methyl cellulose overlay. Tenfold serial dilutions of virus were prepared in HBSS and 0.3 ml aliquots of each dilution inoculated onto triplicate HEP-2 cell monolayers in 60 mm plastic petri dishes. Adsorption of virus was for 1 hour at 37° C. Plates were then overlayed with 5 ml of a 1:1 mixture of 2×DME supplemented with 2% (V/V) calf serum and 3% (W/V) methyl cellulose to give a final 1×DME supplemented with 1% calf serum and 1.5% methylcellulose. Infected plates were incubated at 37° C. in a humidified 10% CO2 atmosphere for 48 hours. Virus plaques were visualized by staining with crystal violet and counted under a dissecting microscope. Virus titers were calculated from the plaque numbers by averaging the plaque count and multiplying by 3.3 (0.3 ml plates).
The following procedure was employed to assay virucidal activity in various test samples. Compounds were received as a solution in DMSO and were serially diluted in HBSS as described for each experiment. For the test, 1 ml of each dilution was mixed with 1 ml of a stock virus suspension diluted to approximately 9×10^3 plaque forming units (P.F.U.)/ml. This test mixture was incubated at 25° C. for 30 minutes, then inoculated onto a cell culture (HEP-2) for plaque assay as described previously. Mock treated (virus plus HBSS) controls were included with each test. Any reduction of plaque titer by test compounds as compared to the mock treated control was indicative of virucidal activity.
Samples from RP-HPLC fractionation of the CLOH, produced according to Example 2, as well as purified samples of palmitic, myristic and oleic acids and Vitamin D2, were tested for HSV-2 bioactivity. […] Pure oleic acid was not active in this assay, nor were palmitic and myristic acids and Vitamin D2. […]

[1] = Table 3, dilution 1:10, control titer 4.5 × 10^3
[2] = Table 3, dilution 1:400, TNTC = too numerous to count
[3] = Table 3, dilution 1:800, TNTC = too numerous to count
[4] = Table 3, dilution 1:1600, TNTC = too numerous to count
[5] = Table 3, dilution 1:3200, TNTC = too numerous to count
[6] = Table 3, dilution 1:6400, TNTC = too numerous to count
[7] = Table 3, dilution 1:12800, TNTC = too numerous to count
[8] = Table 1, dilution 1:10, TNTC = too numerous to count
[9] = Table 1, dilution 1:100, TNTC = too numerous to count
[10] = Table 1, dilution 1:200, TNTC = too numerous to count
[11] = Table 1, dilution 1:400, TNTC = too numerous to count
[12] = Table 1, dilution 1:800, TNTC = too numerous to count
[13] = Table 1, dilution 1:1600, TNTC = too numerous to count
[14] = Table 1, dilution 1:3200, TNTC = too numerous to count
[15] = Table 1, dilution 1:6400, TNTC = too numerous to count

| Structure (SMILES) | plaque count (Table 3, dilution 1:10) | titer [1] | plaque count (Table 3, dilution 1:100) | titer (Table 3, dilution 1:100) | titer (Table 3, dilution 1:400) | plaque count [2] | titer (Table 3, dilution 1:800) | plaque count [3] | titer (Table 3, dilution 1:1600) | plaque count [4] | titer (Table 3, dilution 1:3200) | plaque count [5] | titer (Table 3, dilution 1:6400) | plaque count [6] | titer (Table 3, dilution 1:12800) | plaque count [7] | plaque count [8] | plaque count [9] | plaque count [10] | plaque count [11] | other results |
| --- | --- | --- | --- | --- | --- | --- | --- | --- | --- | --- | --- | --- | --- | --- | --- | --- | --- | --- | --- | --- | --- |
| CCC=CCC=CCC=CCC=CCC=CCC=CCCC(=O)OC [DHA--ME, docasahexaenoic acid, methyl ester] | 95 | 3.1 × 10^2 | 293 | 9.7 × 10^2 | TNTC | TNTC | TNTC | TNTC | TNTC | TNTC | TNTC | TNTC | TNTC | TNTC | TNTC | TNTC | – | – | – | – | – |
| CC/C=C\C/C=C\C/C=C\C/C=C\C/C=C\CCCC(=O)O [EPA, eicosapentaenoic acid] | 0 | 0 | 0.5 | 1.7 × 10^0 | 1.7 × 10^0 | 0.5 | 1.7 × 10^0 | 0.5 | 1.7 × 10^0 | 0.5 | 1.7 × 10^0 | 0.5 | 1.7 × 10^0 | 0.5 | 1.7 × 10^0 | 0.5 | – | – | – | – | MIC: 0.37 µg/mL (≈ 1.22 µM) |
| CCC=CCC=CCC=CCC=CCC=CCCCC(=O)OC [EPA--ME, eicosapentaenoic acid, methyl ester] | 0 | 0 | 2.5 | 8.3 × 10^0 | 2.5 × 10^1 | 7.5 | 4.5 × 10^1 | 13.5 | 6.4 × 10^1 | 19.5 | 1.4 × 10^2 | 42.5 | 1.2 × 10^2 | 36.5 | 2.2 × 10^2 | 66 | – | – | – | – | MIC: 540 µg/mL (≈ 1710 µM) |
| CCCCCCCCCCCCCC(=O)O [Myristic acid, reference compound] | – | – | – | – | – | – | – | – | – | – | – | – | – | – | – | – | TNTC | TNTC | TNTC | TNTC | plaque count [12]: TNTC; plaque count [13]: TNTC; plaque count [14]: TNTC; plaque count [15]: TNTC; virucidal activity against HSV-2 in words: not active |
| CCCCCCCCCCCCCCCC(=O)O [Palmitic acid, reference compound] | – | – | – | – | – | – | – | – | – | – | – | – | – | – | – | – | TNTC | TNTC | TNTC | TNTC | plaque count [12]: TNTC; plaque count [13]: TNTC; plaque count [14]: TNTC; plaque count [15]: TNTC; virucidal activity against HSV-2 in words: not active |
| C=C1CC[C@H](O)C/C1=C/C=C1\CCC[C@]2(C)[C@@H]([C@H](C)/C=C/[C@H](C)C(C)C)CC[C@@H]12 [Vitamin D2, reference compound] | – | – | – | – | – | – | – | – | – | – | – | – | – | – | – | – | TNTC | TNTC | TNTC | TNTC | plaque count [12]: TNTC; plaque count [13]: TNTC; plaque count [14]: TNTC; plaque count [15]: TNTC; virucidal activity against HSV-2 in words: not active |
